According to US5382430A, “Method for the stimulation of the immune system of an animal by use of limulus test-positive plant glycolipid” (priority 1989, dated 1995):

B1: parathyroid hormone (protein, UniProt P01270 32-115, looked up)
Parathyroid hormone: SVSEIQLMHNLGKHLNSMERVEWLRKKLQDVHNFVALGAPLAPRDAGSQRPRKKEDNVLVESHEKSLGEADKADVNVLTKAKSQ
notes: Already known parathyroid hormone which is a bony tissue absorbance hormone

Experiments:
TNF = settings: prior art statement; cited from earlier work
[1] = test system: parietal bones of fowl's embryo; assay: Osteogenesis stimulation: osteoclast activation test, 45Ca leakage (Table 9); settings: 1 unit/ml
Description: Stimulation of Osteogenesis
This stimulation was confirmed by an osteolast activation test.
Osteoclast cells are those in charge of absorbing bony tissue which destroy old bones in said tissue. […] As a result, the osteogenesis is presumed to be stimulated.
In the osteoclast activation test, parietal bones of fowl's embryo are used as experimental samples. That is, the parietal bones of fowl's embryo are labelled with ^45 Ca, and are cultured in a medium containing a medicine candidate (treated group) or in a said candidate-free medium (control group), and thereafter the quantity of the ^45 Ca remaining in the bones and that of the ^45 Ca leaked into the medium during culture are determined. The ^45 Ca leakage rates in both tile treated and control groups are calculated according to the following equation:
^45 Ca leakage rate=(Quantity of ^45 Ca leaked)/(Quantity of
remaining ^45 Ca+Quantity of ^45 Ca leaked)
The effect of the candidate is expressed by the following T/C rate:
T/C rate=(Quantity of ^45 Ca leaked in the treated group)/(Quantity of
^45 Ca leaked in the control group) […]
4) The medium (each, 250 μl) was added to 4.5 ml of ACSII scintillator (Amersham Co. In U.K.), and the counting was made on the basis of liquid scintillation to determine the quantity of the 45Ca leaked into the medium. […]

Molecule	TNF productivity (TNF)	45Ca leakage, Treated T [1]	T/C rate [1]
lentinan	no TNF productivity		
CC(C)C[C@H](NC(=O)[C@@H](O)[C@H](N)Cc1ccccc1)C(=O)O [Bestatin, ubenimex]	no TNF productivity		
sizofiran [Sonifilan]	no TNF productivity		
polysaccharide K [PSK]	no TNF productivity		
B1		4.46	1.22
